Two molecules from patent US6545031B1, “Endothelin receptor antagonists” (SmithKline Beecham Corporation, priority 1995, dated 2003) can be followed below.

With `CCCCn1cc(/C=C(\Cc2cc3c(cc2OC)OCO3)C(=O)O)c(-c2ccc(OC)cc2OCc2ccccc2C(=O)O)n1` [Example 2, (E)-alpha-[[1-n-Butyl-3-[2-[(2-carboxyphenyl)methoxy]-4-methoxyphenyl]-1H-pyrazol-4-yl]methylene]-6-methoxy-1,3-benzodioxole-5-propanoic Acid], the melting point fell in the range of 226 to 227 °C.

The molecule `CCCCn1ncc(/C=C(\Cc2cc3c(cc2OC)OCO3)C(=O)O)c1-c1ccc(OC)cc1OCc1ccccc1C(=O)O` [Example 1, (E)-alpha-[[1-n-Butyl-5-[2-[(2-carboxyphenyl)methoxy]-4-methoxyphenyl]-1H-pyrazol-4-yl]methylene]-6-methoxy-1,3-benzodioxole-5-propanoic Acid] registered a melting point of 213 to 214 °C.

In general, melting point refers to the temperature, or range, at which the solid turns liquid.
